Experimental data reported in patent publication US20150315211A1, “SMALL MOLECULES FOR THE MODULATION OF MCL-1 AND METHODS OF MODULATING CELL DEATH, CELL DIVISION, CELL DIFFERENTIATION AND METHODS OF TREATING DISORDERS” (priority 2010, published 2015).

These compounds were tested on MCL-1ΔNΔC (assay: High-throughput competitive FP binding screen, FITC-MCL-1 SAHB/MCL-1ΔNΔC interaction). Settings: selectivity for MCL-1ΔNΔC over BCL-XLΔC targeting (BCL-XL % Bound minus MCL-1 % Bound).

| SMILES | Spec Values |
| --- | --- |
| CCN1C(=O)C2Cc3cc(OC)c(OC)cc3CN2C1=O (stereo not drawn) | 51.9 |
| O=C(O)CC1NC(=S)N(Cc2ccccc2)C1=O (stereo not drawn) | 50.19 |
| Cc1nn2c(S)nnc2nc1O | 168.5 |
| Cc1cc2nc(N3CCC(C)CC3)c3ccccc3n2n1 | 108.5 |
| Oc1c(C(c2cccs2)N2CCCCC2)ccc2cccnc12 (stereo not drawn) | 105.7 |
| CC1(C)CC2CC(C)(CN2c2nc(N)c3c(N)nc4c(c3c2C#N)CC(=O)N4C2CCCC2)C1 (stereo not drawn) | 104 |
| O=C1NC(=S)N/C1=C1/C(=O)Nc2ccccc21 | 98.82 |
| COc1cc(OC)c(C2=NOC(C(=O)Nc3cc(C)n(CC(=O)NCc4ccco4)n3)C2)cc1Cl (stereo not drawn) | 98.12 |
| CCOC(=O)/C(C#N)=C\c1ccc(N2CCOCC2)cc1 | 96.6 |
| O=C1C(Sc2nc[nH]n2)=C/C(=N/S(=O)(=O)c2ccc(F)cc2)c2ccccc21 | 91.16 |
| NC(=O)c1c(Nc2nc3c(F)cccc3s2)sc2c1CCCC2 | 89.1 |
| C/N=c1\scc(-c2c[nH]c3ccccc23)n1C | 83.96 |
| O=S(=O)(Nc1ccc(Oc2ccc(Cl)cc2C2CCCCC2)nc1)c1cccc2nonc12 | 82.7 |
| CCc1cccc(NC(=O)/C=C/c2ccco2)c1 | 81.13 |

The next lines start with the values.

| Spec Values | SMILES |
| --- | --- |
| 51.57 | O=C1NC(=O)/C(=C\c2cccc(C(F)(F)F)c2)S1 |
| 47.35 | CC(C)CN1C(=O)/C(=C\c2ccc(-c3ccc(S(N)(=O)=O)cc3)o2)SC1=S |
| 124.8 | CC(C)/N=c1\scc(-c2cccs2)n1/N=C/c1ccc(O)c(O)c1O |
| 106.2 | Cc1cs/c(=N\C2CCCCC2)n1/N=C/c1ccc(O)c(O)c1O |
| 135.9 | CCN(CC)c1ccc2cc(C(N)=O)/c(=N\NC(=O)c3ccccc3)oc2c1 |
| 119.7 | COc1ccc(C(=O)COC(=O)c2c3c(nc4ccccc24)CCN(C)C3)cc1 |
| 108.1 | CC(C)(C)c1cc(Cc2ccc(O)c(O)c2)cc(C(C)(C)C)c1O |
| 101.1 | CCOc1ccc(S(=O)(=O)/N=C2/C=C(Sc3nc[nH]n3)C(=O)c3ccccc32)cc1 |
| 98.23 | Oc1ccc(/C=N/NC(=S)Nc2ccc(Cl)cc2Cl)c(O)c1O |
| 93.98 | Cc1ccc(C2=NC(=O)/C(=C/c3cc(O)c(O)c(Br)c3)S2)cc1 |
| 86.7 | O=C(c1ccccc1)c1ccc2nc(-c3ccco3)c(-c3ccco3)nc2c1 |
| 84.11 | CC(C)(C)c1cc(O)c2oc(=O)c(-c3nc(-c4ccccc4F)no3)cc2c1 |
| 83.71 | Cc1ccc(NC(=O)COc2ncnc3c2cnn3-c2ccccc2)cc1 |
| 82.58 | CC(C)c1ccc(C2=CC(=O)C=CC2=O)cc1 |
| 81.03 | Cc1occc1-c1nnc2n1N=C(c1ccc(-c3cc(Cl)ccc3Cl)o1)CS2 |
| 80.8 | Cc1cc(C)c2nc(N3CCCN(C(=O)c4ccco4)CC3)c(C#N)cc2c1 |

The compounds below were run against BCL-XLΔC (Homo sapiens, UniProt Q07817) (assay: High-throughput competitive FP binding screen, FITC-BAD BH3/BCL-XLΔC interaction). Settings: FITC-BAD BH3/BCL-XLΔC interaction pair, competitive FP screen.
BCL-XLΔC, sequence (Q07817 1-212 limits assumed, stated change not applied): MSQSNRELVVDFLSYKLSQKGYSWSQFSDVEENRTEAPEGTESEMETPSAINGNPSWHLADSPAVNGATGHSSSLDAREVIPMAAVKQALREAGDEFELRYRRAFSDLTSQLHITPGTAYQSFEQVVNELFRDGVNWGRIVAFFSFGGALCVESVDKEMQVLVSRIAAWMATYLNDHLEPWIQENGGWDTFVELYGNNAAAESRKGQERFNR

| SMILES | BCL-XL % Bound [%] |
| --- | --- |
| CCN1C(=O)C2Cc3cc(OC)c(OC)cc3CN2C1=O (stereo not drawn) | 91.73 |
| O=C(O)CC1NC(=S)N(Cc2ccccc2)C1=O (stereo not drawn) | 98.89 |
| Cc1nn2c(S)nnc2nc1O | 102.7 |
| Cc1cc2nc(N3CCC(C)CC3)c3ccccc3n2n1 | 106.7 |
| Oc1c(C(c2cccs2)N2CCCCC2)ccc2cccnc12 (stereo not drawn) | 115.2 |
| CC1(C)CC2CC(C)(CN2c2nc(N)c3c(N)nc4c(c3c2C#N)CC(=O)N4C2CCCC2)C1 (stereo not drawn) | 114.7 |
| O=C1NC(=S)N/C1=C1/C(=O)Nc2ccccc21 | 112.9 |
| COc1cc(OC)c(C2=NOC(C(=O)Nc3cc(C)n(CC(=O)NCc4ccco4)n3)C2)cc1Cl (stereo not drawn) | 83.62 |
| CCOC(=O)/C(C#N)=C\c1ccc(N2CCOCC2)cc1 | 78.1 |
| O=C1C(Sc2nc[nH]n2)=C/C(=N/S(=O)(=O)c2ccc(F)cc2)c2ccccc21 | 96.12 |
| NC(=O)c1c(Nc2nc3c(F)cccc3s2)sc2c1CCCC2 | 103.9 |
| C/N=c1\scc(-c2c[nH]c3ccccc23)n1C | 114.1 |
| O=S(=O)(Nc1ccc(Oc2ccc(Cl)cc2C2CCCCC2)nc1)c1cccc2nonc12 | 103.4 |
| CCc1cccc(NC(=O)/C=C/c2ccco2)c1 | 80.4 |

Second part, the compound after the results:

| BCL-XL % Bound [%] | SMILES |
| --- | --- |
| 94.16 | O=C1NC(=O)/C(=C\c2cccc(C(F)(F)F)c2)S1 |
| 105.9 | CC(C)CN1C(=O)/C(=C\c2ccc(-c3ccc(S(N)(=O)=O)cc3)o2)SC1=S |
| 101.7 | CC(C)/N=c1\scc(-c2cccs2)n1/N=C/c1ccc(O)c(O)c1O |
| 89.95 | Cc1cs/c(=N\C2CCCCC2)n1/N=C/c1ccc(O)c(O)c1O |
| 129.3 | CCN(CC)c1ccc2cc(C(N)=O)/c(=N\NC(=O)c3ccccc3)oc2c1 |
| 88.79 | COc1ccc(C(=O)COC(=O)c2c3c(nc4ccccc24)CCN(C)C3)cc1 |
| 96.57 | CC(C)(C)c1cc(Cc2ccc(O)c(O)c2)cc(C(C)(C)C)c1O |
| 103.4 | CCOc1ccc(S(=O)(=O)/N=C2/C=C(Sc3nc[nH]n3)C(=O)c3ccccc32)cc1 |
| 87.36 | Oc1ccc(/C=N/NC(=S)Nc2ccc(Cl)cc2Cl)c(O)c1O |
| 96.59 | Cc1ccc(C2=NC(=O)/C(=C/c3cc(O)c(O)c(Br)c3)S2)cc1 |
| 101.3 | O=C(c1ccccc1)c1ccc2nc(-c3ccco3)c(-c3ccco3)nc2c1 |
| 71.1 | CC(C)(C)c1cc(O)c2oc(=O)c(-c3nc(-c4ccccc4F)no3)cc2c1 |
| 99.91 | Cc1ccc(NC(=O)COc2ncnc3c2cnn3-c2ccccc2)cc1 |
| 89.1 | CC(C)c1ccc(C2=CC(=O)C=CC2=O)cc1 |
| 104 | Cc1occc1-c1nnc2n1N=C(c1ccc(-c3cc(Cl)ccc3Cl)o1)CS2 |
| 92.2 | Cc1cc(C)c2nc(N3CCCN(C(=O)c4ccco4)CC3)c(C#N)cc2c1 |

These compounds were tested against MCL-1ΔNΔC (Homo sapiens, UniProt Q07820) (assay: High-throughput competitive FP binding screen, FITC-MCL-1 SAHB/MCL-1ΔNΔC interaction). Settings: FITC-MCL-1 SAHB/MCL-1ΔNΔC interaction pair, competitive FP screen.
MCL-1ΔNΔC (Homo sapiens, UniProt Q07820), sequence (Q07820 172-320 limits assumed, stated change not applied): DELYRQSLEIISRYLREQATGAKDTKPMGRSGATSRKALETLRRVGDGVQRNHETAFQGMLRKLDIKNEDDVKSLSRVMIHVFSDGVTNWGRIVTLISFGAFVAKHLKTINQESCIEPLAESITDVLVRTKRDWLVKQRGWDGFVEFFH
Design: the C-terminal alpha-helix was deleted from each of these constructs; GST (N, cleaved yes); made in house

| SMILES | MCL-1% Bound [%] |
| --- | --- |
| CCN1C(=O)C2Cc3cc(OC)c(OC)cc3CN2C1=O (stereo not drawn) | 39.84 |
| O=C(O)CC1NC(=S)N(Cc2ccccc2)C1=O (stereo not drawn) | 48.71 |
| Cc1nn2c(S)nnc2nc1O | −65.83 |
| Cc1cc2nc(N3CCC(C)CC3)c3ccccc3n2n1 | −1.786 |
| Oc1c(C(c2cccs2)N2CCCCC2)ccc2cccnc12 (stereo not drawn) | 9.463 |
| CC1(C)CC2CC(C)(CN2c2nc(N)c3c(N)nc4c(c3c2C#N)CC(=O)N4C2CCCC2)C1 (stereo not drawn) | 10.72 |
| O=C1NC(=S)N/C1=C1/C(=O)Nc2ccccc21 | 14.04 |
| COc1cc(OC)c(C2=NOC(C(=O)Nc3cc(C)n(CC(=O)NCc4ccco4)n3)C2)cc1Cl (stereo not drawn) | −14.5 |
| CCOC(=O)/C(C#N)=C\c1ccc(N2CCOCC2)cc1 | −18.5 |
| O=C1C(Sc2nc[nH]n2)=C/C(=N/S(=O)(=O)c2ccc(F)cc2)c2ccccc21 | 4.952 |
| NC(=O)c1c(Nc2nc3c(F)cccc3s2)sc2c1CCCC2 | 14.83 |
| C/N=c1\scc(-c2c[nH]c3ccccc23)n1C | 30.17 |
| O=S(=O)(Nc1ccc(Oc2ccc(Cl)cc2C2CCCCC2)nc1)c1cccc2nonc12 | 20.72 |
| CCc1cccc(NC(=O)/C=C/c2ccco2)c1 | −0.7334 |

Second part, the compound after the results:

| MCL-1% Bound [%] | SMILES |
| --- | --- |
| 42.59 | O=C1NC(=O)/C(=C\c2cccc(C(F)(F)F)c2)S1 |
| 58.51 | CC(C)CN1C(=O)/C(=C\c2ccc(-c3ccc(S(N)(=O)=O)cc3)o2)SC1=S |
| −23.1 | CC(C)/N=c1\scc(-c2cccs2)n1/N=C/c1ccc(O)c(O)c1O |
| −16.27 | Cc1cs/c(=N\C2CCCCC2)n1/N=C/c1ccc(O)c(O)c1O |
| −6.592 | CCN(CC)c1ccc2cc(C(N)=O)/c(=N\NC(=O)c3ccccc3)oc2c1 |
| −30.96 | COc1ccc(C(=O)COC(=O)c2c3c(nc4ccccc24)CCN(C)C3)cc1 |
| −11.56 | CC(C)(C)c1cc(Cc2ccc(O)c(O)c2)cc(C(C)(C)C)c1O |
| 2.333 | CCOc1ccc(S(=O)(=O)/N=C2/C=C(Sc3nc[nH]n3)C(=O)c3ccccc32)cc1 |
| −10.87 | Oc1ccc(/C=N/NC(=S)Nc2ccc(Cl)cc2Cl)c(O)c1O |
| 2.607 | Cc1ccc(C2=NC(=O)/C(=C/c3cc(O)c(O)c(Br)c3)S2)cc1 |
| 14.6 | O=C(c1ccccc1)c1ccc2nc(-c3ccco3)c(-c3ccco3)nc2c1 |
| −13.01 | CC(C)(C)c1cc(O)c2oc(=O)c(-c3nc(-c4ccccc4F)no3)cc2c1 |
| 16.2 | Cc1ccc(NC(=O)COc2ncnc3c2cnn3-c2ccccc2)cc1 |
| 6.516 | CC(C)c1ccc(C2=CC(=O)C=CC2=O)cc1 |
| 22.98 | Cc1occc1-c1nnc2n1N=C(c1ccc(-c3cc(Cl)ccc3Cl)o1)CS2 |
| 11.4 | Cc1cc(C)c2nc(N3CCCN(C(=O)c4ccco4)CC3)c(C#N)cc2c1 |
